In PubChem BioAssay AID256 (DTP/NCI, 2004):
“And” between values parts separate entries of the source, which are not always exact repeats. Identical values can stand only once. Inconclusive results and toxic doses are left out.

Tested on: CD2F1 mice, L1210 leukemia ip, survival T/C
Assay: NCI In Vivo Anticancer Drug Screen. Data for tumor model L1210 Leukemia (intraperitoneal) in CD2F1 (CDF1) mice
Conditions: higher = longer survival
In short: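 Antitumor effect is scored in animals hosting a serially transplanted tumor. Values compare compound-dosed animals against vehicle-only controls as a simple quotient.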

[1] = endpoint: mean survival time, dose: 100.0 mg/kg/injection, schedule: Q01DX009 (ip), vehicle: saline with Tween-80
[2] = endpoint: mean survival time, dose: 100.0 mg/kg/injection, schedule: Q04DX003 (ip), vehicle: saline with Tween-80
[3] = endpoint: mean survival time, dose: 200.0 mg/kg/injection, schedule: Q01DX009 (ip), vehicle: saline with Tween-80
[4] = endpoint: mean survival time, dose: 200.0 mg/kg/injection, schedule: Q04DX003 (ip), vehicle: saline with Tween-80
[5] = endpoint: mean survival time, dose: 400.0 mg/kg/injection, schedule: Q01DX009 (ip), vehicle: saline with Tween-80
[6] = endpoint: mean survival time, dose: 400.0 mg/kg/injection, schedule: Q04DX003 (ip), vehicle: saline with Tween-80
[7] = endpoint: mean survival time, dose: 100.0 mg/kg/injection, schedule: Q04DX002 (ip), vehicle: saline with Tween-80
[8] = endpoint: mean survival time, dose: 200.0 mg/kg/injection, schedule: Q04DX002 (ip), vehicle: saline with Tween-80

Question: With `NC1CCCCC1N.O=C(Nc1ccc2c(O)cc(S(=O)(=O)[O-])cc2c1)c1ccccc1.O=C(Nc1ccc2c(O)cc(S(=O)(=O)[O-])cc2c1)c1ccccc1.[Pt+4]` as the compound, how does the T/C (endpoint: median survival time, dose: 1.56 mg/kg/injection, schedule: Q04DX003 (ip), vehicle: saline with Tween-80) read?
Answer: The T/C was 166 % of control.

Question: And the T/C (endpoint: median survival time, dose: 3.12 mg/kg/injection, schedule: Q04DX003 (ip), vehicle: saline with Tween-80)?
Answer: The T/C was 204 % of control and 344 % of control.

Question: What about the T/C (endpoint: median survival time, dose: 6.25 mg/kg/injection, schedule: Q04DX003 (ip), vehicle: saline with Tween-80) of the same compound?
Answer: Its T/C is 289 % of control and 344 % of control.

Question: What about the T/C (endpoint: median survival time, dose: 12.5 mg/kg/injection, schedule: Q04DX003 (ip), vehicle: saline with Tween-80) of the same compound?
Answer: Its T/C is 289 % of control.

Question: What about the T/C (endpoint: median survival time, dose: 25.0 mg/kg/injection, schedule: Q04DX003 (ip), vehicle: saline with Tween-80) of the same compound?
Answer: Its T/C is 91 % of control.

Question: With `CC(CC=O)P(=O)(c1ccccc1)c1ccccc1` (stereo not given) as the compound, how does the T/C [1] read?
Answer: The T/C was 94 % of control.

Question: And the T/C [2]?
Answer: Its T/C is 94 % of control.

Question: And the T/C [3]?
Answer: Its T/C is 92 % of control.

Question: And the T/C [4]?
Answer: The T/C was 91 % of control.

Question: And the T/C [5]?
Answer: The T/C was 95 % of control.

Question: What about the T/C [6] of the same compound?
Answer: Its T/C is 91 % of control.

Question: `N#[N+]c1cn(C2CC(O)C(CO)O2)c(=O)[nH]c1=O` (stereo not given) was tested. Which T/C [2] did it give?
Answer: The T/C was 101 % of control.

Question: And the T/C [4]?
Answer: Its T/C is 98 % of control.

Question: And the T/C [6]?
Answer: Its T/C is 118 % of control.

Question: For `N#CC(C(N)=O)C1CC(=O)Oc2ccccc21` (stereo not given), which T/C (endpoint: mean survival time, dose: 100.0 mg/kg/injection, schedule: Q04DX003 (ip), vehicle: Klucel (hydroxypropylcellulose) (HPC)) is on record?
Answer: The T/C was 91 % of control.

Question: What about the T/C (endpoint: mean survival time, dose: 200.0 mg/kg/injection, schedule: Q04DX003 (ip), vehicle: Klucel (hydroxypropylcellulose) (HPC)) of the same compound?
Answer: The T/C was 112 % of control.

Question: With `CN(C)C(=O)C(O)C1CCCCC1` (stereo not given) as the compound, how does the T/C [7] read?
Answer: The T/C was 94 % of control.

Question: What about the T/C [8] of the same compound?
Answer: Its T/C is 94 % of control.

Question: What about the T/C (endpoint: mean survival time, dose: 400.0 mg/kg/injection, schedule: Q04DX002 (ip), vehicle: saline with Tween-80) of the same compound?
Answer: The T/C was 94 % of control.

Question: What does the source list for `O=C1OC(c2ccccc2)(c2ccccc2)Cc2ccccc21`?
Answer: T/C [1]: 98 % of control; T/C [3]: 102 % of control; T/C [5]: 102 % of control

Question: For `[Br][Pt+2][Br].[NH-]C(c1ccccc1)C([NH-])c1ccccc1` (stereo not given), which T/C (endpoint: mean survival time, dose: 12.5 mg/kg/injection, schedule: Q04DX003 (ip), vehicle: saline with Tween-80) is on record?
Answer: The T/C was 109 % of control and 119 % of control.

Question: And the T/C (endpoint: mean survival time, dose: 25.0 mg/kg/injection, schedule: Q04DX003 (ip), vehicle: saline with Tween-80)?
Answer: The T/C was 107 % of control and 109 % of control.

Question: What about the T/C (endpoint: mean survival time, dose: 50.0 mg/kg/injection, schedule: Q04DX003 (ip), vehicle: saline with Tween-80) of the same compound?
Answer: Its T/C is 109 % of control.

Question: What does the source list for `N/C(=N\OCc1ccccc1)c1ncn(C2CCCC2)c1N`?
Answer: T/C (endpoint: mean survival time, dose: 75.0 mg/kg/injection, schedule: Q01DX001 (ip), vehicle: other): 102 % of control; T/C (endpoint: mean survival time, dose: 150.0 mg/kg/injection, schedule: Q01DX001 (ip), vehicle: other): 106 % of control; T/C (endpoint: mean survival time, dose: 300.0 mg/kg/injection, schedule: Q01DX001 (ip), vehicle: other): 103 % of control

Question: `NCCCCS(=O)(=O)Nc1ccc(Nc2c3ccccc3nc3cc([N+](=O)[O-])ccc23)cc1` was tested. Which T/C (endpoint: mean survival time, dose: 50.0 mg/kg/injection, schedule: Q01DX009 (ip), vehicle: saline with Tween-80) did it give?
Answer: The T/C was 158 % of control.

Question: What about the T/C [1] of the same compound?
Answer: The T/C was 172 % of control.

Question: What about the T/C [2] of the same compound?
Answer: The T/C was 157 % of control.

Question: What about the T/C (endpoint: mean survival time, dose: 300.0 mg/kg/injection, schedule: Q04DX003 (ip), vehicle: saline with Tween-80) of the same compound?
Answer: The T/C was 159 % of control.

Question: What about the T/C (endpoint: mean survival time, dose: 400.0 mg/kg/injection, schedule: Q04DX003 (ip), vehicle: saline) of the same compound?
Answer: The T/C was 151 % of control.

Question: `O=C(O)c1cc(F)ccc1Cl` was tested. Which T/C [7] did it give?
Answer: Its T/C is 97 % of control.

Question: What about the T/C [8] of the same compound?
Answer: The T/C was 86 % of control.
